Data from US20220259215A1, “PYRROLOPYRAZOLE DERIVATIVES, PREPARATION METHOD THEREOF AND APPLICATION THEREOF IN MEDICINE” (SHANGHAI MEDICILON INC., priority 2019, published 2022).
pIC50: −log10 of the molar value.

Molecular target: T1, H+/K+ATPase (Oryctolagus cuniculus, UniProt P27112)
T1 construct: The stomach tissue of the rabbit was separated; from tissue; host or cells: rabbit stomach (fundus mucosa), membrane fraction obtained by differential and Ficoll centrifugation
Test: Determination of compounds' inhibition of H+/K+ATPase enzyme activity (malachite green, OD 620 nm)
Type: biochemical
Settings: H+/K+ATPase extracted from rabbit stomach mucosa; 500 μM ATP, pH 6.5, 37° C.
From the text: Test Example: Determination of Compounds' Inhibition of H+/K+ATPase Enzyme Activity
The following experiment is used to determine the inhibitory effect of the compound of the present invention on the H+/K+ATPase enzyme activity.
1. Experimental materials
Plate reader: SpectraMax M5(MD).
Malachite Green (Sigma Aldrich, 213020-25G).
Ammonium molybdate (Sigma Aldrich, 277908-20G).
ATP (Sigma Aldrich, A1852-1VL).
Enzyme working solution: titrating the enzyme, diluting the enzyme with buffer solution 1, and taking 5 μl of the diluted solution into 50 μl reaction system.
ATP solution: 100 mM ATP was diluted to 5 mM with no K+ buffer, and 5 μl of the diluted solution was added to the 50 μl reaction system, that is, the final concentration of ATP was 500 μM.
MLG color development liquid: 0.12% MLG, 7.5% ammonium molybdate, 11% Tween-20 was mixed as 100:25:2, and adding 15 μl of the mixture into each well during detection.
Buffer 1: 50 mM Tris-HCl pH 6.5, 5 mM magnesium chloride (magnesium chloride), 10 μM valinomycin (valinomycin).
Buffer 2: 50 mM Tris-HCl pH 6.5, 5 mM magnesium chloride (magnesium chloride), 10 μM valinomycin (valinomycin), 20 mM KCl.
Homogenization buffer: 10 mmol/L Tris-HCl, pH 6.8, 0.25M sucrose (sucrose), 1 mmol/LEDTA.
7.5% Ficoll layering solution: homogenization buffer+7.5% (W/W) (Ficoll 400).
3.1.H^+/K^+ATPase enzyme extraction
(1) The stomach tissue of the rabbit was separated, and the blood was washed with tap water, food residue.
(2) The fundus portion was thoroughly washed with pre-cooled NaCl solution to remove surface mucus.
(3) The stripped mucosa was filled into a sample bag or a 50 ml centrifuge tube, and quickly freezing in a liquid nitrogen tank.
(4) The tissue was removed, minced with surgical scissors, and a pre-cooled homogenization buffer (4 ml/g tissue) was added and homogenized in a tissue homogenizer for 2 to 10 minutes.
(5) After homogenization, if there were larger tissue particles, they could be removed by centrifugation (600 g, 10 min), and then the supernatant was transfered to a clean centrifuge tube. After centrifugation at 20000 g for 30 minutes, then the supernatant was transferred to a clean centrifuge tube at 100000 g for 90 minutes, and the precipitate was collected.
(6) Resuspending the precipitate with homogenization buffer, blowing uniformly, adding 7.5% Ficoll layering solution at equal ratio, centrifuging at 100000 g for 90 minutes, and collecting the precipitate.
(7) Resuspending the precipitate with homogenization buffer, blowing uniformly, and the protein concentration was measured by Bradford. Freezing in tubes at −80° C. for later use.
3.2. H+/K+ATPase activity experiment
(1) Adding 35 μl of reaction buffer to each experimental well, and then adding 35 μl of buffer 1.
(2) Adding 5 μl buffer 1 containing 10% DMSO to the whole enzyme and buffer well.
(3) Adding 5 μl of 10× compound working solution to the compound well and mixing well.
(4) Adding 5 μl of buffer 1 to the buffer well.
(5) Adding 5 μl of 10× enzyme working solution to the remaining wells, mixing and incubating at 37° C. for 30 minutes.
(6) Adding 5 μl of 10× ATP working solution to all experimental wells, mixing and incubating at 37° C. for 20 min.
(7) Adding 15 μl MLG chromogenic solution to all experimental wells, and uniformly mixing and incubating at room temperature for 5-30 min.
(8) The reading number of 620 nm was detected by an M5 instrument.
The inhibition rate is calculated with the following formula:
Inhibition rate (IC50)=[OD (sample well)-OD (full enzyme well containing potassium chloride)]/[(OD (full enzyme well containing potassium chloride)−(OD (full enzyme well without potassium chloride)]×100%

T1 sequence (P27112 whole entry): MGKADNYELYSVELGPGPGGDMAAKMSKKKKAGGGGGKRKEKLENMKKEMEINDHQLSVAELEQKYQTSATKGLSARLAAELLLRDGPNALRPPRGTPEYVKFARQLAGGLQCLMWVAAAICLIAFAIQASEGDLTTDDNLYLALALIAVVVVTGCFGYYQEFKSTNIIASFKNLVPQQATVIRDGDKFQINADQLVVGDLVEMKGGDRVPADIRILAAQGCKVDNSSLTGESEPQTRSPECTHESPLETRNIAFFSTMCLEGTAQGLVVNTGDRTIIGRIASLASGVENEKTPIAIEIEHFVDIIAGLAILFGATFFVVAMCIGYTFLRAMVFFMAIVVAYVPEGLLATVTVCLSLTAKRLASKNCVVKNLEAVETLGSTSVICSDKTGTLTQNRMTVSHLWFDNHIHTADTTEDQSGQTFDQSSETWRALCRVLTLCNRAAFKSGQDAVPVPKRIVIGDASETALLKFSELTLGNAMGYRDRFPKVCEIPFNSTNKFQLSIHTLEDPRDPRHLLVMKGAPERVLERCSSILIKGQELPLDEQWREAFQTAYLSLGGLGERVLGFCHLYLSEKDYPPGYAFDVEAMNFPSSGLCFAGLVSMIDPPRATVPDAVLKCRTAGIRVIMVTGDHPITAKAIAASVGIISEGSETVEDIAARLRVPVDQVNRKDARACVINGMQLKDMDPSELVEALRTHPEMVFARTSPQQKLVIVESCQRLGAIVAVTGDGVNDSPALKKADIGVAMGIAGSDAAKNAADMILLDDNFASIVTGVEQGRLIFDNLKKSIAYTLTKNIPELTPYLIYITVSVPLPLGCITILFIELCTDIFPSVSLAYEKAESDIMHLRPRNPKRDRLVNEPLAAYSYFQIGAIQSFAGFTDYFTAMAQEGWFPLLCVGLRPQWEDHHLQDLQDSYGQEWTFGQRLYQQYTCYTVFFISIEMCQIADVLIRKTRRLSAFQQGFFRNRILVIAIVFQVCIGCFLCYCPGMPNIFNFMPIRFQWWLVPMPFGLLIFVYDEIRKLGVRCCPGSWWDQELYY
T1 sequence (P18597 whole entry partner): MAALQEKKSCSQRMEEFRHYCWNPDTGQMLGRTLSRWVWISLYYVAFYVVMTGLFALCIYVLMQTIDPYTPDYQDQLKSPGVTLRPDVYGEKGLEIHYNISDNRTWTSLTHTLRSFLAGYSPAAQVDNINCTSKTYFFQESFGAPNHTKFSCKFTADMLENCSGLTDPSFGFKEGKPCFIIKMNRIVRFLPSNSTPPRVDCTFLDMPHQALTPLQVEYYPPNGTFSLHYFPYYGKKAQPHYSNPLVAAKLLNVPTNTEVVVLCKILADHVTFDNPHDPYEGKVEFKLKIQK

Row | Structure (SMILES) | pIC50
1 | COc1ccc(Nc2cccc(Cn3nc4c(c3-c3ccccc3F)CN(C)C4)c2)c(Cl)n1 [Example 1, 2-chloro-N-(3-((3-(2-fluorophenyl)-5-methyl-5,6-dihydropyrrolo[3,4-c]pyrazol-2(4H)-yl)methyl)phenyl)-6-methoxypyridin-3-amine] | 6.38
2 | Cc1ccc(Nc2cccc(Cn3nc4c(c3-c3ccccc3F)CN(C)C4)c2)c(Cl)n1 [Example 2, 2-chloro-N-(3-((3-(2-fluorophenyl)-5-methyl-5,6-dihydropyrrolo[3,4-c]pyrazol-2(4H)-yl)methyl)phenyl)-6-methylpyridin-3-amine] | 6.17
3 | CN1Cc2nn(Cc3cccc(Nc4ccnc(Cl)n4)c3)c(-c3ccccc3F)c2C1 [Example 3, 2-chloro-N-(3-((3-(2-fluorophenyl)-5-methyl-5,6-dihydropyrrolo[3,4-c]pyrazol-2(4H)-yl)methyl)phenyl) pyrimidin-4-amine] | 6.02
4 | CN1Cc2nn(Cc3cccc(Nc4cc[nH]c(=O)n4)c3)c(-c3ccccc3F)c2C1 [Example 4, 4-((3-((3-(2-fluorophenyl)-5-methyl-5,6-dihydropyrrolo[3,4-c]pyrazol-2(4H)-yl)methyl)phenyl)amino)pyrimidin-2-(1H)-one] | 6.14
5 | CNc1nccc(Nc2cccc(Cn3nc4c(c3-c3ccccc3F)CN(C)C4)c2)n1 [Example 5, N4-(3-((3-(2-fluorophenyl)-5-methyl-5,6-dihydropyrrolo[3,4-c]pyrazol-2(4H)-yl)methyl)phenyl)-N2-methylpyrimidine-2,4-diamine] | 6.55
6 | CN1Cc2nn(Cc3cccc(Nc4ccnc(N5CCOCC5)n4)c3)c(-c3ccccc3F)c2C1 [Example 6, N-(3-((3-(2-fluorophenyl)-5-methyl-5,6-dihydropyrrolo[3,4-c]pyrazol-2(4H)-yl)methyl)phenyl)-2-morpholinopyrimidin-4-amine] | 5.55
7 | CN1Cc2nn(Cc3cccc(Nc4cncc(Cl)n4)c3)c(-c3ccccc3F)c2C1 [Example 7, 6-chloro-N-(3-((3-(2-fluorophenyl)-5-methyl-5,6-dihydropyrrolo[3,4-c]pyrazol-2(4H)-yl)methyl)phenyl)pyrazin-2-amine] | 6.49
